Reference: patent publication US9618453B2, “Aggregation induced emission of fluorescent bioprobes and methods of using the same” (THE HONG KONG UNIVERSITY OF SCIENCE AND TECHNOLOGY, priority 2011, dated 2017)

How the values were obtained:
[1] = Photoluminescence in THF/water mixtures with different water fractions (aggregation induced emission); format: physicochemical; conditions: water/THF solution, water fraction 90 vol %
Text: The AIE of TPENCS is illustrated in FIG. 1. […] With water content ranging from 0-70%, the fluorescence intensity remained at a very low level. When the water concentration was in the 80-90 vol % range, a rapid and dramatic increase of the fluorescence intensity with increasing water content was observed (FIG. 1b). The PL intensity of TPENCS in the water/THF solution with a water fraction of 90 vol % was approximately 50-fold higher than that in the mixture with 70% water. The quantum efficiency of TPENCS was 52.2% in the solid state.
Similar to other AIE active molecules, TPEMBR only gave weak emission in good solvents such as THF. […] To quantify the effect of water content on the degree of fluorescent emission enhancement, the photoluminescence intensity of TPEMBR was measured where the fraction of water was increased from 0 to 90 vol %. With the water content in the range of 0-70%, the fluorescent intensity remained at a very low level. With the water fraction reaching the 80-90 vol % range, a rapid and dramatic increase of the fluorescent intensity was observed (FIG. 9b). The photoluminescence intensity of TPEMBR in the water/THF solution with a water fraction of 90 vol % was approximately 50-fold stronger than that in the mixture with 70% water. In the solid state, the quantum efficiency of TPEMBR was determined to be 31.7%.
The AIE of SITC is illustrated in FIGS. 17a and 17b. The wavelength at maximum absorption of SITC was at 363 nm and the emission maximum was at 490 nm. […] To quantify the effect of water content on the elevation of the fluorescent emission, the photoluminescence intensity of SITC was measured with concentration of water increasing from 0 to 90 vol %. With water content ranging from 0-70%, the fluorescent intensity remained at a very low level. When the water concentration was in the 80-95 vol % range, a rapid and dramatic increase of the fluorescent intensity with increasing water content was observed (FIG. 17b). The photoluminescence intensity of SITC in the water/THF solution with a water fraction of 95 vol % was approximately 50-fold higher than that in the mixture with 70% water. The quantum efficiency of SITC was 45.8% in the solid state.
(§1) Tetrahydrofuran (THF; Labscan) was distilled under nitrogen from sodium benzophenone ketyl immediately prior to use. Acrylamide was purchased from Bio-Rad. Aminoallyl-dUTP (aa-dUTP), dNTPs, DNase I (RNase-free), DNA Polymerase I, Klenow Fragment exo-, Random Hexamer Primer, Long PCR Enzyme Mix and GeneJET™ PCR Purification Kit, GeneRuler™ 100 bp Plus DNA Ladder (ready-to-use, 100-3000 bp), 6×DNA Loading Dye were purchased from Fermentas (Thermo Scientific). Deep VentR™ exo-DNA Polymerase was purchased from New England Biolabs (NEB). Synthesized oligonucleotides (primers) were purchased from Tech Drogon Limited. GelRed™ Nucleic Acid Gel Stain (10000× in water) was purchased from Biotium. Other chemicals, reagents and solvents were all purchased from Aldrich or Invitrogen. ^1H and ^13C NMR spectra were measured on a Bruker ARX 400 NMR spectrometer using CDCl3 as solvent. High-resolution mass spectra (HRMS) were taken on a Finnigan TSQ 7000 triple quadrupole spectrometer in a MALDI-TOF mode. UV spectra were measured on a Milton Roy Spectronic 3000 Array spectrophotometer. Fluorescence (FL) spectra were recorded on a Perkin-Elmer LS 55 spectrofluorometer. FL quantum yields (ΦF) of amorphous powders of siloles were measured using C-701 Time-Resolved Spectrofluorometer with the integrating sphere as accessory.
Structure of dye is confirmed by standard spectroscopic methods (FIGS. 23, 26a, and 27a). In order to confirm TPEITC is AIE-active, we investigated its fluorescence in THF/water mixtures with different water fractions. […] TPEITC molecules with hydrophobic aromatic cores precipitated and became aggregate in the nonsolvent mixture. Aggregation blocks the nonradiative relaxation channels and populates the radiative decay, thus resulting in high luminescence. […]

[2] = Fluorescence quantum efficiency in the solid state; format: physicochemical
Text: as §1

[3] = Quantum efficiency of TPEMBR before and after reaction with dithiothreitol (DTT); format: physicochemical; conditions: water/THF solution, water fraction 90 vol %
Procedure: In addition to the enhancement of fluorescence because of its AIE property, TPEMBR becomes even more emissive through the reaction between its bromomethyl group and thiol group of proteins, presumably due to the elimination of the internal heavy atom effect of bromide. […] TPEMBR and DTT in equal amount were dissolved in THF to give a concentration of 10 μM for each component. The mixture was then incubated at room temperature overnight. Photoluminescence intensity and UV absorption of TPEMBR were measured in THF/water mixtures with a water fraction of 90 vol % before and after reacting with DTT. As shown in FIGS. 12a and 12b, the quantum efficiency of TPEMBR in the water/THF solution with a water fraction of 90 vol % was approximately 3 times higher after reacting with DTT.

BSA (35 Cys) = BSA (35 Cys) (Bos taurus, UniProt P02769); test: Fluorescent labeling of Cys residues of protein with TPEMBR, SDS-PAGE; parameters: species or system bovine
Procedure: (§2) 2.5 μL Tris-HCl (1 M), 2.5 μL TCEP (20 mM), 5 μL BSA (1 mg/mL, 15 μM), and 30 μL urea (8 M in water) was added to a 1.5 mL Eppendorf tube and mixed well. The mixture was incubated at room temperature for 30 min to pre-reduce the disulfide bonds with TCEP. Then, 10 μL of the TPEMBR DMSO stock solution (2.5 mM 5×) was added to the system and made the final volume 50 μL. The reaction mixture was incubated for 3 hours at 50° C. in an Eppendorf Thermomixer. Then, samples were cooled either to room temperature for instant use or frozen for eventual use.
In order to ensure that the Cys residues were sufficiently labeled with TPEMBR, a longer reaction time (usually overnight) at or below room temperature was required. Alternatively, the reaction time could be reduced if labeling was carried out at 50° C. To verify the time-dependence of labeling efficiency, bovine serum albumin (BSA) samples were labeled with TPEMBR for different times ranging from 10 min to 4 h and analyzed by SDS-PAGE. The fluorescence intensity of the labeled BSA increased as the reaction time was extended. The maximum intensity under specific labeling conditions was observed after 3 h and remained unchanged even with an additional 1 h of reaction time (FIGS. 11a and 11b). […] The time-dependent labeling effect provides a way to determine the desirable DOL according to different applications by simply controlling the labeling time. Meanwhile, a lower temperature labeling process with a longer reaction time could be a better choice to obtain fluorescent proteins while maintaining their native structures.
BSA samples were subjected to labeling with different dye concentrations. The SDS-PAGE fluorescence intensity of labeled BSA increased with increasing dye concentration. […] Further increasing the dye concentration could give higher fluorescence intensity due to nonspecific labeling. Clearly, the DOL of protein samples can be controlled by varying the dye concentration.
(§3) Specific labeling of Cys residues by TPEMBR was examined through the labeling of proteins with different Cys contents. BSA (35 Cys), yeast enolase (single Cys) and horse myoglobin (0 Cys) were labeled with 0.5 mM of TPEMBR, respectively. The corresponding fluorescent products were analyzed on gel. […] The results further confirmed the specificity of TPEMBR to Cys residue when the working concentration of 0.5 mM was used.
BSA was labeled by each dye with a series of varying dye/thiol ratios. After the electrophoresis, the gel fluorescent image was taken under UV excitation and the fluorescence intensity was obtained from three independent experiments. Fluorescence intensities normalized with the sample with the lowest dye concentration are plotted versus the dye/thiol ratio (FIG. 16). […] This self-quenching effect is inevitable for self-quenching dyes such as 5-BMF and limits these dyes' application on quantification of proteins. In contrast, detection and quantification of proteins with high contents of Cys can be easily achieved by using AIE active molecules such as TPEMBR.

horse myoglobin (0 Cys) = horse myoglobin (0 Cys) (Equus caballus, UniProt P68082); test: as above; conditions: 0.5 mM dye
Procedure: as §2, §3

[4] = target: bovine serum albumin (BSA) (Bos taurus, UniProt P02769); test: Fluorescence labeling of BSA with TPE-SO3 in phosphate buffer; conditions: BSA 5 μM, pH 7.0
Procedure: Fluorescence labeling was carried out by sequentially adding solutions of TPE-SO3 to 100 μL aliquots of BSA solutions. The mixtures were stirred for half an hour prior to taking their spectra.
The PL peak intensities of the BSA prepared with the lowest concentrations of TPE-SO3 were used as the reference and plots of the normalized fluorescence versus the concentrations of TPE-SO3 were obtained (FIG. 22). […] TPE-SO3 is represented by the following chemical formula: […]

Chain of BSA (35 Cys) (P02769 25-607): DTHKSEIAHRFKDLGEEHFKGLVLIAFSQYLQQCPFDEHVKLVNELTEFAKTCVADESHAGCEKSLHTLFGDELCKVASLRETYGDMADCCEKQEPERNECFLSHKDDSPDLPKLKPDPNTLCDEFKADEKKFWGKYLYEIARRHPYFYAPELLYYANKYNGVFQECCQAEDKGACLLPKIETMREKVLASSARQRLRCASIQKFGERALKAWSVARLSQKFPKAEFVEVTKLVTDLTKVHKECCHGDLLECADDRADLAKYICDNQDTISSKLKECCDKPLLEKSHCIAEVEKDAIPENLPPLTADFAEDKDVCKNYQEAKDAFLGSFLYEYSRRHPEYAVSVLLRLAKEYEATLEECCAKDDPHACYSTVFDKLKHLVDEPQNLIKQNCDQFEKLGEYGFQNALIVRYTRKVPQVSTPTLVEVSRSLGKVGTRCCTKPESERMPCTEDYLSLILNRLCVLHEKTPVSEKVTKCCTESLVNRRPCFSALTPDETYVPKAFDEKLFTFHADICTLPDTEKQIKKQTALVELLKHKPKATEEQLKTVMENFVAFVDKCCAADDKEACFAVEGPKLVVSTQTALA
Chain of horse myoglobin (0 Cys) (P68082 whole entry): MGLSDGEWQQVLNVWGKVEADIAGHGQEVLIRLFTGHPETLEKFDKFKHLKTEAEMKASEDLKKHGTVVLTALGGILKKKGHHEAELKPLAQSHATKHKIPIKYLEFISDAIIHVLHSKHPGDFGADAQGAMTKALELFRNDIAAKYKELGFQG
Chain of bovine serum albumin (BSA) (P02769 25-607): as the sequence (P02769 25-607) above

SMILES	PL intensity relative to the mixture with 70% water [1]	quantum efficiency [2] [%]	quantum efficiency after reacting with DTT relative to before [3]	emission of labeled protein on gel (BSA (35 Cys); 0.5 mM dye)	dye concentration at which maximum intensity was reached (BSA (35 Cys); SDS-PAGE fluorescence intensity of labeled BSA) [mM]	labeling time to maximum fluorescence intensity (BSA (35 Cys); labeling at 50° C., 10 min to 4 h) [h]	self-quenching effect versus dye/thiol ratio (BSA (35 Cys); series of dye/thiol ratios)	emission of labeled protein on gel (horse myoglobin (0 Cys))	fluorescence intensity of labeled BSA versus dye concentration [4]
BrCc1ccc(C(=C(c2ccccc2)c2ccccc2)c2ccccc2)cc1 [TPEMBR]	approximately 50 fold	31.7	approximately 3 times	much higher emission than yeast enolase	≥ 0.5	3	kept on increasing	no fluorescence at all	–
O=S(=O)([O-])CCCOc1ccc(C(=C(c2ccccc2)c2ccc(OCCCS(=O)(=O)[O-])cc2)c2ccccc2)cc1.[Na+].[Na+] (mixture of isomers) [TPE-SO3]	–	–	–	–	–	–	–	–	increased continuously
